In article PMC9737911 (2022):
Values belong to the compound of their own block, whether it stands above or below them.

Tests used:
[1] = system: OT-Bea-4bp (DNA, aptamer) CGATCGGGTGTGGGTGGCGTAAAGGGAGCATCG; assay: fluorescence quenching (FAM/BHQ1 beacon), single concentration; settings: 120 mM NaCl, 2 mM CaCl2; highest concentration tested 200 nM; no quenching
[2] = system: OT-Bea-4bp (DNA, aptamer) CGATCGGGTGTGGGTGGCGTAAAGGGAGCATCG; assay: fluorescence quenching titration (FAM/BHQ1 beacon); settings: 120 mM NaCl, 2 mM CaCl2; 20 mM Tris-HCl pH 8.5, 0.1% Tween 20, room temperature, 50 nM probe
[3] = system: OT-Bea-1bp (DNA, aptamer) TCGGGTGTGGGTGGCGTAAAGGGAGCA; assay: fluorescence quenching (FAM/BHQ1 beacon), single concentration; settings: 120 mM NaCl, 20 mM CaCl2; 20 mM Tris-HCl pH 7.5; 50 nM probe, 500 nM OTA; negligible fluorescence change
[4] = system: OT-Bea-2bp (DNA, aptamer) ATCGGGTGTGGGTGGCGTAAAGGGAGCAT; assay: as above; settings: 120 mM NaCl, 20 mM CaCl2; 20 mM Tris-HCl pH 7.5; 50 nM probe, 500 nM OTA; 37% quenching
[5] = system: OT-Bea-3bp (DNA, aptamer) GATCGGGTGTGGGTGGCGTAAAGGGAGCATC; assay: as above; settings: 120 mM NaCl, 20 mM CaCl2; 20 mM Tris-HCl pH 7.5; 50 nM probe, 500 nM OTA; 41% quenching
[6] = system: OT-Bea-5bp (DNA, aptamer) GCGATCGGGTGTGGGTGGCGTAAAGGGAGCATCGC; assay: as above; settings: 120 mM NaCl, 20 mM CaCl2; 20 mM Tris-HCl pH 7.5; 50 nM probe, 500 nM OTA; small signal change

SMILES: CCCC[C@@H](C)[C@@H](OC(=O)C[C@@H](CC(=O)O)C(=O)O)[C@H](C[C@@H](C)CCCCCC[C@@H](O)C[C@H](O)[C@H](C)N)OC(=O)C[C@@H](CC(=O)O)C(=O)O
binding [1]: no

SMILES: CCCC[C@@H](C)[C@@H](OC(=O)C[C@@H](CC(=O)O)C(=O)O)[C@H](C[C@@H](C)C[C@H](O)CCCC[C@@H](O)C[C@H](O)[C@H](C)N)OC(=O)C[C@@H](CC(=O)O)C(=O)O
binding [1]: no

SMILES: C[C@H]1CCCC(=O)CCC/C=C/c2cc(O)cc(O)c2C(=O)O1
binding [1]: no

Second part, the compound after the results:

Kd [2]: 16 ± 2 nM
binding [3]: weak
binding [4]: yes
binding [5]: yes
binding [6]: yes
SMILES: C[C@@H]1Cc2c(Cl)cc(C(=O)N[C@@H](Cc3ccccc3)C(=O)O)c(O)c2C(=O)O1

binding [1]: no
SMILES: C[C@@H]1Cc2ccc(C(=O)N[C@@H](Cc3ccccc3)C(=O)O)c(O)c2C(=O)O1
